Each block holds one compound with its values, some of them ahead of it.
How the values were obtained:
[1] = Encapsulation of active ingredients in the particles; format: physicochemical
Method: The protocol adopted for encapsulating the hydrophilic active ingredients is to dissolve the active ingredient in water at an initial concentration as indicated in Table 5 and then adding the amphiphilic polysaccharide and the α-cyclodextrin. The mixture is magnetically stirred for 3 days. After this mixing for 3 days, the concentration of the active ingredient that has not been encapsulated is determined in the supernatant of the preparation. The supernatant is separated either by simple sedimentation or by centrifugation of the microparticles, or after ultracentrifugation in the case of the nanoparticles.
The protocol adopted for encapsulating the hydrophobic active ingredients is to dissolve the active ingredient in an ethanol/water mixture at an initial concentration as shown in Table 26 and then add the amphiphilic polysaccharide and the α-cyclodextrin. The mixture is maintained under magnetic stirring for 3 days. After mixing for 3 days, the concentration of the active ingredient that has not been encapsulated is determined in the supernatant of the preparation. The supernatant is separated either by simple sedimentation or by centrifugation of the microparticles, or after ultracentrifugation in the case of the nanoparticles.

bacterial adhesion = settings: heparin coating of abiotic surfaces; cited from earlier work
Candida albicans = settings: heparin coating of abiotic surfaces; cited from earlier work
[2] = polysaccharide MC6, initial concentration 21.7 g/L, water
[3] = polysaccharide MC8, initial concentration 21.7 g/L, water
[4] = polysaccharide MC9, initial concentration 2.33 g/L, water
[5] = polysaccharide MC6, ethanol/water 40/60 % v/v, initial concentration 3.5 g/L
[6] = polysaccharide MC11, initial concentration 2.34 g/L, water
[7] = polysaccharide MC8, initial concentration 194 g/L, water
[8] = polysaccharide MC9, initial concentration 2.31 g/L, water

Compound: Cn1c(=O)c2c(ncn2C)n(C)c1=O [Caffeine]
Concentration encapsulated [1, 2]: 3590 µg/mL
Encapsulation yield [1, 2]: 16.55%
Concentration encapsulated [1, 3]: 3150 µg/mL
Encapsulation yield [1, 3]: 17.53%
Concentration encapsulated [1, 4]: 510 µg/mL
Encapsulation yield [1, 4]: 22.23%

Compound: Heparin
reduction of bacterial adhesion (bacterial adhesion): 90%
reduction of adhesion of Candida albicans (Candida albicans): approximately 50%

The remaining lines, values ahead:

Encapsulated concentration [1, 5]: 1.09 g/L
Encapsulation yield [1, 5]: 31.12%
Compound: CC(C(=O)O)c1cccc(C(=O)c2ccccc2)c1 (stereo not shown) [Ketoprofen]

Concentration encapsulated [1, 6]: 780 µg/mL
Encapsulation yield [1, 6]: 33.33%
Compound: CC(=O)Nc1ccc(O)cc1 [Paracetamol]

Concentration encapsulated [1, 7]: 104650 µg/mL
Encapsulation yield [1, 7]: 53.94%
Concentration encapsulated [1, 8]: 1520 µg/mL
Encapsulation yield [1, 8]: 65.82%
Compound: Cc1ncc(CO)c(CO)c1O.Cl [Vitamin B6]

Reference: patent publication US10412960B2, “Microparticles and nanoparticles made up of hydrophobized polysaccharides and an alpha-cyclodextrine” (priority 2012, dated 2019)
